In data set [1] the test system is Coxsackievirus A16. The data set is described as follows: Antiviral activity against Coxsackievirus A16 TA271 infected in RD cells at release stage assessed as appearance of rounded cells at 0.08 uM/L preincubated with cells for 1 hr followed by replacement of fresh medium containing compounds after 5 hrs post infection and further incubated for 16 hrs post infection by inverted microscopic analysis. In kind it is functional, cell-based.

Data set [2] relates to Coxsackievirus A16. The data set is described as follows: Antiviral activity against Coxsackievirus A16 TA271 infected in ICR mouse assessed as reduction in viral load in spinal muscle at 0.08 uM/L preincubated with viral suspension for 2 hrs followed by intramuscular administration after 3 to 5 days post infection by RT-PCR analysis. It counts as functional.
Data set [3] deals with Coxsackievirus A16. The data set is described as follows: Antiviral activity against Coxsackievirus A16 TA271 infected in ICR mouse assessed as reduction in inflammatory cell infiltration in lung at 2 mg/kg, im after 5 days post infection by H and E staining based histopathological analysis. In kind it is functional, organism-based.
Data set [4] deals with Coxsackievirus A16. Put plainly: Antiviral activity against Coxsackievirus A16 TA271 infected in RD cells assessed as effect on viral load at release stage at 0.08 uM/L preincubated with cells for 1 hr followed by replacement of fresh medium containing compounds for 16 hrs and measured after 48 hrs post infection by RT-PCR analysis. In kind it is functional, cell-based.
In data set [5] the test system is Coxsackievirus A16. The data set is described as follows: Antiviral activity against Coxsackievirus A16 TA271 infected in RD cells assessed as inhibition of viral adsorption/viral entry by measuring increase in cell viability at 0.08 uM/L after 1 hr by inverted microscopic analysis. In kind it is functional, cell-based.
Data set [6] deals with Coxsackievirus A16. Put plainly: Antiviral activity against Coxsackievirus A16 TA271 infected in ICR mouse assessed as reduction in lesions in heart at 2 mg/kg, im after 5 days post infection by H and E staining based histopathological analysis. In kind it is functional, organism-based.
In data set [7] the test system is Coxsackievirus A16. Put plainly: Antiviral activity against Coxsackievirus A16 TA271 infected in ICR mouse assessed as reduction in viral load in heart at 0.08 uM/L preincubated with viral suspension for 2 hrs followed by intramuscular administration after 3 to 5 days post infection by RT-PCR analysis. It counts as functional.
The subject of data set [8] is Coxsackievirus A16. Put plainly: Antiviral activity against Coxsackievirus A16 TA271 infected in RD cells at replication stage assessed as appearance of cell shrinkage at 0.08 uM/L 1 hr post-infection viral inoculum was removed and cells incubated with medium containing compound and measured after 5 hrs by inverted microscopic analysis. In kind it is functional, cell-based.

In data set [9] the test system is Coxsackievirus A16. Put plainly: Antiviral activity against Coxsackievirus A16 TA271 infected in ICR mouse assessed as effect on virus-induced IL-6 level at 2 mg/kg, im after 3 days post infection by ELISA. It counts as functional, organism-based.
The nature of data set [10]: Cytotoxicity against human RD cells assessed as cell survival at <5 uM after 24 hrs by CCK8 assay relative to control. Particulars: read-out: Activity. It counts as cell-based.
Data set [11] has as its system Coxsackievirus A16. Put plainly: Antiviral activity against Coxsackievirus A16 TA271 infected in ICR mouse assessed as mild alveolar fibrosis in lung at 2 mg/kg, im after 5 days post infection by H and E staining based histopathological analysis. In kind it is functional, organism-based.
In data set [12] the test system is Coxsackievirus A16. Put plainly: Antiviral activity against Coxsackievirus A16 TA271 infected in RD cells assessed as effect on viral load at preinfection stage at 0.08 uM/L preincubated with cells for 3 hrs followed by viral infection for 1 hr and measured after 48 hrs post infection in fresh medium by RT-PCR analysis. It counts as functional, cell-based.
Data set [13] in a line: Toxicity in ICR mouse infected with Coxsackievirus A16 TA271 assessed as increase in body weight at 2 mg/kg, im and measured every day. It counts as organism-based. Particulars: in vivo.

Activity calls are given as the source filed them. No cut-off for these calls is given here. Where only a bound is given, the exact number is not on record here.

From ChEMBL document CHEMBL4334442, “Effects of Acetylshikonin on the Infection and Replication of Coxsackievirus A16 in Vitro and in Vivo” (J Nat Prod, 2019) come the findings set out here.

Take `CC(=O)OC(CC=C(C)C)C1=CC(=O)c2c(O)ccc(O)c2C1=O` (stereo not drawn): the result in data set [1], in [4], in [8], in [9] and in data set [12] was inactive. For the same compound, the result in [2], in data set [3], in data set [6], in data set [7] and in [11] was Active. The inhibition entry in data set [5] is “Active”. Moreover, the viability at 24 h in [10] is > 90%. In addition, in [13], the Activity result is reported as “Non-Toxic”.
